Source: patent publication US9540348B2, “Imidazole-1-yl pyrimidine derivatives, or pharmacutically acceptable salt thereof, and pharmaceutic composition comprising the same as an active ingredient” (Industry-University Cooperation Foundation Hanyang …, priority 2015, dated 2017)
Entries after “also recorded” stand apart in the source; their conditions may differ.

Legend:
[1] = test system: U937 human leukemic monocyte lymphoma cell line; experiment: Antiproliferative activity to U937 human leukemic monocyte lymphoma cell line; format: cell-based; conditions: for GI50: U-937, U937 human leukemic monocyte lymphoma cell line, read-out: U937 (GI50, Unit: μM); for potency against U937, in words: U937 cell line, comparison with Sorafenib
Experimental: (§1) The antiproliferative activity of the compounds of Examples to A375P human melanoma cell line and U937 human leukemic monocyte lymphoma cell line are evaluated and listed in the following Table 1.

[2] = test system: A375P human melanoma cell line; experiment: Antiproliferative activity to A375P human melanoma cell line; format: cell-based; conditions: for GI50: A375P human melanoma cell line, read-out: A375P (GI50, Unit: μM); for potency against A375P, in words: A375P cell line, comparison with Sorafenib
Experimental: as §1

Structure (SMILES)	GI50 [1] [µM]	GI50 [2] [µM]	potency against U937, in words [1]	potency against A375P, in words [2]
C[C@H](O)CNc1nccc(-n2ccnc2Cc2cccc(NC(=O)c3cc(N4CCN(C)CC4)cc(C(F)(F)F)c3)c2)n1 [Example 1, (S)—N-(3-((1-(2-((2-hydroxypropyl)amino)pyrimidin-4-yl)-1H-imidazol-2-yl)methyl)phenyl)-3-(4-methylpiperazin-1-yl)-5-(trifluoromethyl)benzamide]	> 30	12.3		
Cc1cc(C)cc(C(=O)Nc2cccc(Cc3nccn3-c3ccnc(NC[C@H](C)O)n3)c2)c1 [Example 2, (S)—N-(3-((1-(2-((2-hydroxypropyl)amino)pyrimidin-4-yl)-1H-imidazol-2-yl)methyl)phenyl)-3,5-dimethylbenzamide]	16.8			
C[C@H](O)CNc1nccc(-n2ccnc2Cc2cccc(NC(=O)Cc3ccccc3F)c2)n1 [Example 4, (S)-2-(2-fluorophenyl)-N-(3-((1-(2-((2-hydroxypropyl)amino)pyrimidin-4-yl)-1H-imidazol-2-yl)methyl)phenyl)acetamide]	> 30	7.45		
C[C@H](O)CNc1nccc(-n2ccnc2Cc2cccc(NC(=O)c3cnn(-c4ccccc4)c3C(F)(F)F)c2)n1 [Example 5, (S)—N-(3-((1-(2-((2-hydroxypropyl)amino)pyrimidin-4-yl)-1H-imidazol-2-yl)methyl)phenyl)-1-phenyl-5-(trifluoromethyl)-1H-pyrazole-4-carboxamide]	25.8	6.39		
C[C@H](O)CNc1nccc(-n2ccnc2Cc2cccc(NC(=O)c3ccc(Cl)cc3)c2)n1 [Example 6, (S)-4-chloro-N-(3-((1-(2-((2-hydroxypropyl)amino)pyrimidin-4-yl)-1H-imidazol-2-yl)methyl)phenyl)benzamide]	> 30	10.2		
C[C@H](O)CNc1nccc(-n2ccnc2Cc2cccc(NC(=O)c3ccc4[nH]nnc4c3)c2)n1 [Example 9, (S)—N-(3-((1-(2-((2-hydroxypropyl)amino)pyrimidin-4-yl)-1H-imidazol-2-yl)methyl)phenyl)-1H-benzo[d][1,2,3]triazole-5-carboxamide]	18.5	> 30		
C[C@H](O)CNc1nccc(-n2ccnc2Cc2cccc(NC(=O)c3ccncc3)c2)n1 [Example 10, (S)—N-(3-((1-(2-((2-hydroxypropyl)amino)pyrimidin-4-yl)-1H-imidazol-2-yl)methyl)phenyl)isonicotinamide]		8.92		
C[C@H](O)CNc1nccc(-n2ccnc2Cc2cccc(NC(=O)Cc3ccc(-c4ccccc4)cc3)c2)n1 [Example 11, (S)-2-([1,1′-biphenyl]-4-yl)-N-(3-((1-(2-((2-hydroxypropyl)amino)pyrimidin-4-yl)-1H-imidazol-2-yl)methyl)phenyl)acetamide]	10	11.2		
C[C@H](O)CNc1nccc(-n2ccnc2Cc2cccc(NC(=O)c3ccc(-c4ccccc4)cc3)c2)n1 [Example 12, (S)—N-(3-((1-(2-((2-hydroxypropyl)amino)pyrimidin-4-yl)-1H-imidazol-2-yl)methyl)phenyl)-[1,1′-biphenyl]-4-carboxamide]	1.68	0.6	large potencies; also recorded: better potencies than Sorafenib	large potencies; also recorded: better potencies than Sorafenib
C[C@H](O)CNc1nccc(-n2ccnc2Cc2cccc(NC(=O)c3ccccc3Sc3ccccc3C#N)c2)n1 [Example 15, (S)-2-((2-cyanophenyl)thio)-N-(3-((1-(2-((2-hydroxypropyl)amino)pyrimidin-4-yl)-1H-imidazol-2-yl)methyl)phenyl)benzamide]	10			
Cc1c(C)c2c(c(C)c1O)CC[C@](C)(C(=O)Nc1cccc(Cc3nccn3-c3ccnc(NC[C@H](C)O)n3)c1)O2 [Example 16, (R)-6-hydroxy-N-(3-((1-(2-(((S)-2-hydroxypropyl)amino)pyrimidin-4-yl)-1H-imidazol-2-yl)methyl)phenyl)-2,5,7,8-tetramethylchromane-2-carboxamide]	23.6			
C[C@H](O)CNc1nccc(-n2ccnc2Cc2cccc(NC(=O)C(c3ccc(Cl)cc3)c3ccc(Cl)cc3)c2)n1 [Example 17, (S)-2,2-bis(4-chlorophenyl)-N-(3-((1-(2-(2-hydroxypropylamino)pyrimidin-4-yl)-1H-imidazol-2-yl)methyl)phenyl)acetamide]	3.24	3.97		
C[C@H](O)CNc1nccc(-n2ccnc2Cc2cccc(NC(=O)c3ccc(Cl)c(C(F)(F)F)c3)c2)n1 [Example 19, (S)-4-chloro-N-(3-((1-(2-((2-hydroxypropyl)amino)pyrimidin-4-yl)-1H-imidazol-2-yl)methyl)phenyl)-3-(trifluoromethyl)benzamide]	6.83	3.3	large potencies	large potencies
C[C@H](O)CNc1nccc(-n2ccnc2Cc2cccc(NC(=O)c3cc(N4CCOCC4)cc(C(F)(F)F)c3)c2)n1 [Example 20, (S)—N-(3-((1-(2-((2-hydroxypropyl)amino)pyrimidin-4-yl)-1H-imidazol-2-yl)methyl)phenyl)-3-morpholino-5-(trifluoromethyl)benzamide]	9.7	6.6		
C[C@H](O)CNc1nccc(-n2ccnc2Cc2cccc(NC(=O)Nc3cccc(Cl)c3)c2)n1 [Example 21, (S)-1-(3-chlorophenyl)-3-(3-((1-(2-((2-hydroxypropyl)amino)pyrimidin-4-yl)-1H-imidazol-2-yl)methyl)phenyl)urea]	1.73	19.2		
C[C@H](O)CNc1nccc(-n2ccnc2Cc2cccc(NC(=O)Nc3ccc(Cl)c(Cl)c3)c2)n1 [Example 22, (S)-1-(3,4-dichlorophenyl)-3-(3-((1-(2-((2-hydroxypropyl)amino)pyrimidin-4-yl)-1H-imidazol-2-yl)methyl)phenyl)urea]	15.3	26.2		
C[C@H](O)CNc1nccc(-n2ccnc2C(=O)c2cccc(NC(=O)c3cccc(C(F)(F)F)c3)c2)n1 [Example 25, (S)—N-(3-(1-(2-((2-hydroxypropyl)amino)pyrimidin-4-yl)-1H-imidazole-2-carbonyl)phenyl)-3-(trifluoromethyl)benzamide]	3.78	> 30		
COc1ccc(-c2ccc(C(=O)Nc3cccc(C(=O)c4nccn4-c4ccnc(NC[C@H](C)O)n4)c3)o2)cc1 [Example 26, (S)—N-(3-(1-(2-((2-hydroxypropyl)amino)pyrimidin-4-yl)-1H-imidazole-2-carbonyl)phenyl)-5-(4-methoxyphenyl)furan-2-carboxamide]	2.55	9.39		
C[C@H](O)CNc1nccc(-n2ccnc2C(=O)c2cccc(NC(=O)c3cc(N4CCOCC4)cc(C(F)(F)F)c3)c2)n1 [Example 27, (S)—N-(3-(1-(2-((2-hydroxypropyl)amino)pyrimidin-4-yl)-1H-imidazole-2-carbonyl)phenyl)-3-morpholino-5-(trifluoromethyl)benzamide]	4.9			
C[C@H](O)CNc1nccc(-n2ccnc2C(=O)c2cccc(NC(=O)c3cc(N4CCN(C)CC4)cc(C(F)(F)F)c3)c2)n1 [Example 28, (S)—N-(3-(1-(2-((2-hydroxypropyl)amino)pyrimidin-4-yl)-1H-imidazole-2-carbonyl)phenyl)-3-(4-methylpiperazin-1-yl)-5-(trifluoromethyl)benzamide]		27.8		
C[C@H](O)CNc1nccc(-n2ccnc2C(=O)c2ccc(NC(=O)c3ccc(Cl)cc3)cc2)n1 [Example 33, (S)-4-chloro-N-(4-(1-(2-((2-hydroxypropyl)amino)pyrimidin-4-yl)-1H-imidazole-2-carbonyl)phenyl)benzamide]		7.07		
C[C@H](O)CNc1nccc(-n2ccnc2C(=O)c2ccc(NC(=O)c3cccc(Cl)c3)cc2)n1 [Example 34, (S)-3-chloro-N-(4-(1-(2-((2-hydroxypropyl)amino)pyrimidin-4-yl)-1H-imidazole-2-carbonyl)phenyl)benzamide]		5.92		
C[C@H](O)CNc1nccc(-n2ccnc2C(=O)c2ccc(NC(=O)c3cc(N4CCN(C)CC4)cc(C(F)(F)F)c3)cc2)n1 [Example 36, (S)—N-(4-(1-(2-((2-hydroxypropyl)amino)pyrimidin-4-yl)-1H-imidazole-2-carbonyl)phenyl)-3-(4-methylpiperazin-1-yl)-5-(trifluoromethyl)benzamide]	14.7	> 30		
C[C@H](O)CNc1nccc(-n2ccnc2C(=O)c2ccc(NC(=O)Nc3ccc(Cl)c(C(F)(F)F)c3)cc2)n1 [Example 38, (S)-1-(4-chloro-3-(trifluoromethyl)phenyl)-3-(4-(1-(2-((2-hydroxypropyl)amino)pyrimidin-4-yl)-1H-imidazole-2-carbonyl)phenyl)urea]	7.45	> 30		
C[C@H](O)CNc1nccc(-n2ccnc2C(=O)c2ccc(NC(=O)Nc3ccc(Cl)c(Cl)c3)cc2)n1 [Example 39, (S)-1-(3,4-dichlorophenyl)-3-(4-(1-(2-((2-hydroxypropyl)amino)pyrimidin-4-yl)-1H-imidazole-2-carbonyl)phenyl)urea]	11.6	> 30		
CNC(=O)c1cc(Oc2ccc(NC(=O)Nc3ccc(Cl)c(C(F)(F)F)c3)cc2)ccn1 [Sorafenib, reference compound]	2.74	3.4		
